The text below walks through data of US20130165520A1, “Hybrid Molecule Having Mixed Retinoic Acid Receptor Agonism and Histone Deacetylase Inhibitory Properties” (priority 2010, published 2013).

Holding throughout (assay type): cell-based
The subject of series [1] is RAR target genes in MDA-MB-231 cell line. Put plainly: RT-qPCR analysis of RAR and HDACi target genes. The settings on record: MDA-MB-231 cell line. From the text: (§1) The agonist activity of 3 through its effects on RAR target genes was subsequently analyzed (FIG. 3).
Series [2] has as its target T1, RARα (Homo sapiens, UniProt P10276).
T1 sequence (P10276 1-462): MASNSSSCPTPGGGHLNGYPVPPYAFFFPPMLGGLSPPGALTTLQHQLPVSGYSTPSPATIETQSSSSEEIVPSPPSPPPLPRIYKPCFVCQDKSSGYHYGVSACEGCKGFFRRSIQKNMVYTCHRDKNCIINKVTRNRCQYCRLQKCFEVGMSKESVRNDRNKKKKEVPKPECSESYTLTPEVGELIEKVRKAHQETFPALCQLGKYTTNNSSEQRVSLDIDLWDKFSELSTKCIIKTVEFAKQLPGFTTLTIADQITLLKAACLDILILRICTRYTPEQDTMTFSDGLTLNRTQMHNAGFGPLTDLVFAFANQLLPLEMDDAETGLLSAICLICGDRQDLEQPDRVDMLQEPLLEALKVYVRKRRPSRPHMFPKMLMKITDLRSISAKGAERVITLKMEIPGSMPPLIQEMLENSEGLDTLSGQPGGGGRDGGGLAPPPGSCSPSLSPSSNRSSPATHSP
The series can be described thus: BRET assay of agonist-dependent coactivator recruitment in transfected HEK293 cells. The settings on record: 1 μM, 2 hours treatment. On the procedure: Hybrid 3 was prepared by treatment of the methyl ester of TTNN with excess hydroxylamine under alkaline conditions. The effects of hybrid 3 on RAR were initially assessed using a bioluminescence resonance energy transfer (BRET) assay. The BRET assay monitors agonist-dependent recruitment of coactivators to RARs in transfected HEK293 cells, chosen because of their high degree of transfectability. Energy transfer between luciferase (fused to RARα) and eGFP (fused to the LXXLL coactivator motif) occurs only when these moieties are juxtaposed by the RAR-LXXLL interaction, and can be detected by the emission of green fluorescence.
Cell transfection and BRET assays: HEK293 cells were grown to confluence, trypsinized and plated at a density of 500 k cells per well (12-well plates) in DMEM supplemented with 10% charcoal treated FBS (FBS-T). The following day, cells were transfected with PEI using 0.1 μg of RAR-RLuc vector and 1 μg of LXXLL-eGFP vector. 48 hours post-transfection, cells were treated with retinoids for 2 hours before taking BRET measurements as described previously.
(In general: BRET reads energy transfer from a luciferase to a nearby fluorophore.)

The test system of series [3] is MDA-MB-231. The series can be described thus: Cell growth measurement. As to conditions: 10 days of treatment. As for the experimental part:
(§2) Finally, the effects of 3 on the growth of several breast cancer cell lines [MCF-7 (ER-positive, HER2-negative, RA-sensitive); SkBr3 (ER-negative, HER2-amplified, RA-sensitive); and the normally RA-insensitive MDA-MB-231 (ER-negative, HER2-negative, RA-insensitive)] was assessed.
(§3) Cell Growth Measurement: Cells were plated at 40 k cells per well (6-well plate) in DMEM 5% FBS-T for all cell lines except for I-IMEC cells which were plated in supplemented MEBM from Clonetics. Cells were treated every 48 hours and media was refreshed every 96 hours. After 10 days of treatment cells were harvested in 0.1N NaOH and growth was quantified by analyzing protein content of lysates with a Lowry assay.

The subject of series [4] is SkBr3. Put plainly: Cell growth measurement. The settings on record: 10 days of treatment. As for the experimental part:
as §2, §3

Series [5] deals with MCF-7. Put plainly: Cell growth measurement. The settings on record: 10 days of treatment. On the procedure: as §2, §3
In series [6] the test system is RAR target genes in MCF-7 cell line. The series can be described thus: RT-qPCR analysis of RAR target genes.
From the text: as §1
In general terms: Real-time PCR tracks product formation cycle by cycle.

In series [7] the test system is normal human mammary epithelial cells (HMEC). The series can be described thus: Cell growth measurement.

For the compound `CC1(C)CCC(C)(C)c2cc(-c3ccc4cc(C(=O)O)ccc4c3)ccc21` [TTNN, 6-(5,6,7,8-tetrahydro-5,5,8,8-tetramethyl-2-naphthalenyl)-2-naphthalene carboxylic acid, reference compound], the “induction of RAR target genes (RT-qPCR)” value in series [1] was “only induce RARB2”; in series [6], “no induction of either RARB1 or RARB2”. Also, the “RARα agonism (BRET signal)” value in series [2] is given as “agonists of RARα”. In addition, the “effect on cell growth” value in series [3] was “little to no effect”; in series [4], “inactive”; in series [5] it was “inactive”.
Take `CC1=C(/C=C/C(C)=C/C=C/C(C)=C/C(=O)O)C(C)(C)CCC1` [ATRA, all-trans-retinoic acid]: the “induction of RAR target genes (RT-qPCR)” value in series [1] is “only induce RARB2”; in series [6], “no induction of either RARB1 or RARB2”. Also, the “RARα agonism (BRET signal)” value in series [2] is listed as “agonists of RARα”. For the same compound, the “effect on cell growth” value in series [3] is “little to no effect”.
As to `O=C(CCCCCCC(=O)Nc1ccccc1)NO` [SAHA, reference compound], the figures for the “effect on cell growth” value in series [3], in series [4] and in series [5] were “modest decrease in cell growth”, “shallow activity” and “shallow activity”, respectively. For the same compound, in series [7], the “effect on growth of normal cells” value is “strong inhibition”.
`CN1c2ccccc2N=C(c2ccc(C(=O)O)cc2)c2cc3c(cc21)C(C)(C)CCC3(C)C` [HX600]: the “RARα agonism (BRET signal)” value in series [2] is recorded as “no increase in BRET signal”.
